Laboratory results as given in ChEMBL document CHEMBL5634089, “Design, synthesis and evaluation of 2-pyrimidinylindole derivatives as anti-obesity agents by regulating lipid metabolism” (Eur J Med Chem, 2023).
Converted amounts (≈) assume the structure as drawn. The source made the active and inactive calls. No cut-off for these calls is given here.

Assays:
[1] = system: Mus musculus; experiment: Anti-obesity activity in high-fat and high-cholesterol diet induced C57BL/6J mouse assessed as reduction in liver damage by measuring reduction in alkaline phosphatase level in serum at 20 mg/kg, ip administered every day for 6 weeks; format: functional, organism-based
[2] = system: Mus musculus; experiment: Anti-obesity activity in high-fat and high-cholesterol diet induced C57BL/6J mouse assessed as improvement in glucose tolerance at 20 mg/kg, ip measured after 3 weeks by GTT analysis; format: functional, organism-based
[3] = system: Mus musculus; experiment: Anti-obesity activity in high-fat and high-cholesterol diet induced C57BL/6J mouse assessed as attenuation of inflammation in liver at 20 mg/kg, ip administered everyday for 6 weeks by hematoxylin and eosin staining based microscopic analysis; format: functional, organism-based
[4] = Cmax in Sprague-Dawley rat at 20 mg/kg, po administered for 24 hrs by LC-MS/MS analysis; format: ADME, organism-based; settings: in vivo
[5] = system: Mus musculus; experiment: Inhibition of lipid synthesis in high-fat and high-cholesterol diet induced C57BL/6J mouse assessed as downregulation of FABP4 protein expression at 20 mg/kg, ip administered for 6 weeks by Western blotting analysis; format: functional, organism-based
[6] = system: 3T3-L1; experiment: Anti-adipogenic activity against mouse 3T3-L1 cells assessed as change in phosphorylated AMPK alpha level; format: functional, cell-based
[7] = system: Mus musculus; experiment: Anti-obesity activity in high-fat and high-cholesterol diet induced C57BL/6J mouse assessed as reduction in serum glucose level at 20 mg/kg, ip measured after 3 weeks by GTT analysis; format: functional, organism-based
[8] = system: 3T3-L1; experiment: Anti-adipogenic activity against mouse 3T3-L1 cells assessed as decrease in Fasn mRNA expression at 0.2 to 0.8 uM incubated for 3 days by RT-PCR analysis; format: functional, cell-based; settings: dose 0.2-0.8 µM, time 3.0 day
[9] = system: Mus musculus; experiment: Anti-obesity activity in high-fat and high-cholesterol diet induced C57BL/6J mouse assessed as reduction in liver damage by measuring reduction in alanine aminotransferase level in serum at 20 mg/kg, ip administered every day for 6 weeks; format: functional, organism-based
[10] = MRT (0 to t) in Sprague-Dawley rat at 20 mg/kg, po administered for 24 hrs by LC-MS/MS analysis; format: ADME, organism-based; settings: in vivo
[11] = system: Mus musculus; experiment: Anti-obesity activity in high-fat and high-cholesterol diet induced C57BL/6J mouse assessed as attenuation of hepatocyte ballooning at 20 mg/kg, ip administered every day for 6 weeks by […] staining based microscopic analysis; format: functional, organism-based
[12] = MRT (0 to t) in Sprague-Dawley rat at 2 mg/kg, iv administered for 24 hrs by LC-MS/MS analysis; format: ADME, organism-based; settings: in vivo
[13] = Apparent volume of distribution during terminal phase in Sprague-Dawley rat at 2 mg/kg, iv administered for 24 hrs by LC-MS/MS analysis; format: ADME, organism-based; settings: in vivo
[14] = system: Mus musculus; experiment: Anti-obesity activity in high-fat and high-cholesterol diet induced C57BL/6J mouse assessed as reduction in total cholesterol level at 20 mg/kg, ip administered every day for 6 weeks; format: functional, organism-based
[15] = system: 3T3-L1; experiment: Anti-adipogenic activity against mouse 3T3-L1 cells assessed as decrease in Elovl6 mRNA expression at 0.2 to 0.8 uM incubated for 3 days by RT-PCR analysis; format: functional, cell-based; settings: dose 0.2-0.8 µM, time 3.0 day
[16] = Half life in Sprague-Dawley rat at 2 mg/kg, iv administered for 24 hrs by LC-MS/MS analysis; format: ADME, organism-based; settings: in vivo
[17] = system: Mus musculus; experiment: Inhibition of lipid synthesis in high-fat and high-cholesterol diet induced C57BL/6J mouse assessed as downregulation of FASN protein expression at 20 mg/kg, ip administered for 6 weeks by Western blotting analysis; format: functional, organism-based
[18] = system: Mus musculus; experiment: Inhibition of lipid synthesis in high-fat and high-cholesterol diet induced C57BL/6J mouse assessed as downregulation of ACLY protein expression at 20 mg/kg, ip administered for 6 weeks by Western blotting analysis; format: functional, organism-based
[19] = system: 3T3-L1; experiment: Anti-adipogenic activity in mouse 3T3-L1 cells assessed as lipid-lowering activity measured after 9 days by Oil Red O staining based microplate reader analysis; format: functional, cell-based; settings: 3T3-L1, 216 h
[20] = Aqueous solubility of compound incubated for 24 hrs by HPLC analysis; format: physicochemical; settings: aqueous medium
[21] = system: 3T3-L1; experiment: Anti-adipogenic activity against mouse 3T3-L1 cells assessed as increase in Mcad mRNA expression at 0.2 to 0.8 uM incubated for 3 days by RT-PCR analysis; format: functional, cell-based; settings: dose 0.2-0.8 µM, time 3.0 day
[22] = system: 3T3-L1; experiment: Anti-adipogenic activity against mouse 3T3-L1 cells assessed as decrease in Scd1 mRNA expression at 0.2 to 0.8 uM incubated for 3 days by RT-PCR analysis; format: functional, cell-based; settings: dose 0.2-0.8 µM, time 3.0 day
[23] = AUC (0 to infinity) in Sprague-Dawley rat at 20 mg/kg, po administered for 24 hrs by LC-MS/MS analysis; format: ADME, organism-based; settings: in vivo
[24] = Cytotoxicity against mouse 3T3-L1 cells assessed as reduction in cell viability incubated for 24 hrs by Sulforhodamine B assay; format: toxicity, cell-based
[25] = system: 3T3-L1; experiment: Anti-adipogenic activity in mouse 3T3-L1 cells assessed as lipid-lowering activity during the adipogenesis stage at 0.2 to 1.0 uM measured after 0 to 3 days; format: functional, cell-based; settings: dose 0.2-1 µM, time 0-3 day
[26] = system: Mus musculus; experiment: Anti-obesity activity in high-fat and high-cholesterol diet induced C57BL/6J mouse assessed as reduction in liver damage by measuring reduction in aspartate aminotransferase level in serum at 20 mg/kg, ip administered every day for 6 weeks; format: functional, organism-based
[27] = system: 3T3-L1; experiment: Anti-adipogenic activity against mouse 3T3-L1 cells assessed as increase in Cpt1 alpha mRNA expression at 0.2 to 0.8 uM incubated for 3 days by RT-PCR analysis; format: functional, cell-based; settings: dose 0.2-0.8 µM, time 3.0 day
[28] = Therapeutic index, ratio of IC50 for cytotoxicity against mouse 3T3-L1 cells to EC50 for anti-adipogenic in mouse 3T3-L1 cells; format: toxicity, cell-based; settings: read-out: Ratio IC50/EC50
[29] = system: Mus musculus; experiment: Anti-obesity activity in high-fat and high-cholesterol diet induced C57BL/6J mouse model assessed as reduction in body weight at 20 mg/kg, ip administered every day for 6 weeks and measured daily relative to control; format: functional; set-up: scale not given: the % may be the effect or the level left
[30] = AUC (0 to t) in Sprague-Dawley rat at 2 mg/kg, iv administered for 24 hrs by LC-MS/MS analysis; format: ADME, organism-based; settings: in vivo
[31] = Apparent oral clearance in Sprague-Dawley rat at 20 mg/kg, po administered for 24 hrs by LC-MS/MS analysis; format: ADME, organism-based; settings: in vivo
[32] = system: Mus musculus; experiment: Anti-obesity activity in high-fat and high-cholesterol diet induced C57BL/6J mouse assessed as attenuation of insulin resistance at 20 mg/kg, ip measured after 5 weeks by ITT analysis; format: functional, organism-based
[33] = system: 3T3-L1; experiment: Anti-adipogenic activity against mouse 3T3-L1 cells assessed as decrease in ATP citrate lyase mRNA expression at 0.2 to 0.8 uM incubated for 3 days by RT-PCR analysis; format: functional, cell-based; settings: dose 0.2-0.8 µM, time 3.0 day
[34] = system: Mus musculus; experiment: Anti-obesity activity in high-fat and high-cholesterol diet induced C57BL/6J mouse assessed as reduction in fat mass at 20 mg/kg, ip administered every day for 6 weeks; format: functional, organism-based
[35] = Half life in Sprague-Dawley rat at 20 mg/kg, po administered for 24 hrs by LC-MS/MS analysis; format: ADME, organism-based; settings: in vivo
[36] = system: Mus musculus; experiment: Inhibition of lipid synthesis in high-fat and high-cholesterol diet induced C57BL/6J mouse assessed as downregulation of ACC protein expression at 20 mg/kg, ip administered for 6 weeks by Western blotting analysis; format: functional, organism-based
[37] = system: 3T3-L1; experiment: Anti-adipogenic activity against mouse 3T3-L1 cells assessed as decrease in Acc mRNA expression at 0.2 to 0.8 uM incubated for 3 days by RT-PCR analysis; format: functional, cell-based; settings: dose 0.2-0.8 µM, time 3.0 day

SMILES: CC(=O)c1c(-c2nccc(NCCN3CCCC3)n2)[nH]c2ccccc12
- Activity [1]: Active
- Activity [2]: Active
- Activity [3]: Active
- Cmax [4]: 168 ng/mL
- inhibition [5]: Active
- Activity [6]: inactive
- Activity [7]: Active
- Activity [8]: Active
- Activity [9]: Active
- MRT last at 24 h [10]: 5.2 h
- Activity [11]: Active
- MRT last at 24 h [12]: 1.6 h
- Vz/F [13]: 24.4 L/kg
- Activity [14]: Active
- Activity [15]: Active
- half-life [16]: 114 min
- inhibition [17]: Active
- inhibition [18]: Active
- EC50 [19]: 106 nM
- solubility at 24 h [20]: 161 µg/mL (≈ 461 µM)
- Activity [21]: Active
- Activity [22]: Active
- AUC(0-inf) [23]: 1470 ng·h/mL
- IC50 at 24 h [24]: 27 µM
- Activity [25]: Active
- Activity [26]: Active
- Activity [27]: Active
- selectivity ratio [28]: 255
- Activity [29]: 17.4%
- AUC(0-t) at 24 h [30]: 219 ng·h/mL
- CL/F [31]: 255 mL/min/kg
- Activity [32]: Active
- Activity [33]: Active
- Activity [34]: Active
- half-life [35]: 174 min
- inhibition [36]: Active
- Activity [37]: Active
